What was measured:
Format in all cases: in vivo
[1] = tested on: upland rice (Oryza sp., var. Tebonnet, RICE); assay: Post-emerge test, crop safety; conditions: post-emerge, 14 days after application, rating scale 0-100
Outline: (§1)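 Rating: 0–100 visual injury, 14 DAA. Application: acetone, 187 l/ha, 15–1000 g ai/ha, flat-fan track sprayer with nozzle 40–45 cm above soil or canopy. Post-emerge runs used 0.25% v/v surfactant on 2–3 leaf plants.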

[2] = tested on: field corn (Zea mays L., var. Dekalb 535, CORN); assay: Post-emerge test, crop safety; conditions: post-emerge, 14 days after application, rating scale 0-100
Outline: as §1

[3] = tested on: upland rice (Oryza sp., var. Tebonnet, RICE); assay: Pre-emerge test, crop safety; conditions: pre-emerge, 14 days after application, rating scale 0-100
Outline: (§2)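 Compounds in acetone were track-sprayed at 187 l/ha, 15–1000 g ai/ha, onto sandy loam pots. Pre-emerge seeds were sown one day before spraying, with surface watering afterwards. Post-emerge plants were at the 2–3 leaf stage and sprayed with 0.25% v/v non-ionic surfactant. Injury was rated 0–100 at 14 days.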

[4] = tested on: field corn (Zea mays L., var. Dekalb 535, CORN); assay: Pre-emerge test, crop safety; conditions: pre-emerge, 14 days after application, rating scale 0-100
Outline: as §2

[5] = tested on: large crabgrass (Digitaria sanguinalis, DIGSA); assay: Post-emerge test, greenhouse herbicide activity screening; conditions: post-emerge, 14 days after application, rating scale 0-100
Outline: (§3)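 Sandy loam pots; pre-emerge: sown 1 d pre-spray, surface-watered after, then bottom-watered. Post-emerge: sown 8–21 d before, 2–3 leaf stage, + 0.25% v/v NIS, bottom-watered. Acetone, 187 l/ha track spray, 15–1000 g ai/ha. 0–100 injury score, day 14.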

[6] = tested on: ivyleaf morningglory (Ipomoea hederacea, IPOHE); assay: as above; conditions: post-emerge, 14 days after application, rating scale 0-100
Outline: as §3

[7] = tested on: barnyardgrass (Echinochloa crus-galli, ECHCG); assay: as above; conditions: post-emerge, 14 days after application, rating scale 0-100
Outline: as §3

[8] = tested on: redroot pigweed (Amaranthus retroflexus, AMARE); assay: as above; conditions: post-emerge, 14 days after application
Outline: as §3

[9] = tested on: johnsongrass (Sorghum halepense, SORHA); assay: as above; conditions: post-emerge, 14 days after application, rating scale 0-100
Outline: as §3

[10] = tested on: velvetleaf (Abutilon theophrasti, ABUTH); assay: as above; conditions: post-emerge, 14 days after application, rating scale 0-100
Outline: as §3

[11] = tested on: sicklepod (Cassia obtusifolia, CASOB); assay: as above; conditions: post-emerge, 14 days after application, rating scale 0-100
Outline: as §3

[12] = tested on: lambsquarters (Chenopodium album, CHEAL); assay: as above; conditions: post-emerge, 14 days after application, rating scale 0-100
Outline: as §3

[13] = tested on: green foxtail (Setaria viridis, SETVI); assay: as above; conditions: post-emerge, 14 days after application, rating scale 0-100
Outline: as §3

[14] = tested on: large crabgrass (Digitaria sanguinalis, DIGSA); assay: Pre-emerge test, greenhouse herbicide activity screening; conditions: pre-emerge, 14 days after application, rating scale 0-100
Outline: (§4)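 Compounds in acetone were track-sprayed at 15–1000 g ai/ha: pre-emergence onto soil sown the previous day, then top-watered to incorporate and later bottom-watered; post-emergence onto 2–3 leaf plants with 0.25% v/v surfactant, bottom-watered only. Ratings on a 0–100 phytotoxicity scale were taken at day 14.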

[15] = tested on: ivyleaf morningglory (Ipomoea hederacea, IPOHE); assay: as above; conditions: pre-emerge, 14 days after application, rating scale 0-100
Outline: as §4

[16] = tested on: barnyardgrass (Echinochloa crus-galli, ECHCG); assay: as above; conditions: pre-emerge, 14 days after application, rating scale 0-100
Outline: as §4

[17] = tested on: common ragweed (Ambrosia artemisizfolia L., AMBEL); assay: as above; conditions: pre-emerge, 14 days after application, rating scale 0-100
Outline: as §4

[18] = tested on: johnsongrass (Sorghum halepense, SORHA); assay: as above; conditions: pre-emerge, 14 days after application, rating scale 0-100
Outline: as §4

[19] = tested on: velvetleaf (Abutilon theophrasti, ABUTH); assay: as above; conditions: pre-emerge, 14 days after application, rating scale 0-100
Outline: as §4

[20] = tested on: sicklepod (Cassia obtusifolia, CASOB); assay: as above; conditions: pre-emerge, 14 days after application, rating scale 0-100
Outline: as §4

[21] = tested on: lambsquarters (Chenopodium album, CHEAL); assay: as above; conditions: pre-emerge, 14 days after application, rating scale 0-100
Outline: as §4

[22] = tested on: green foxtail (Setaria viridis, SETVI); assay: as above; conditions: pre-emerge, 14 days after application, rating scale 0-100
Outline: as §4

[23] = tested on: redroot pigweed (Amaranthus retroflexus, AMARE); assay: as above; conditions: pre-emerge, 14 days after application, rating scale 0-100
Outline: as §2

C=CC=NNc1c(OC)c(Cl)cc(F)c1-n1c(=O)cc(C(F)(F)F)n(C)c1=O [15-10]
100: phytotoxicity rating RICE ([3]; 250 g ai/ha) | phytotoxicity rating CORN ([4]; 250 g ai/ha) | Post-emerge Herbicidal Activity IPOHE (phytotoxicity rating) ([6]; 63 g ai/ha) | Post-emerge Herbicidal Activity IPOHE (phytotoxicity rating) ([6]; 250 g ai/ha) | Post-emerge Herbicidal Activity AMARE (phytotoxicity rating) ([8]; 63 g ai/ha, rating scale 0-100 (0 no damage, 100 complete death)) | Post-emerge Herbicidal Activity AMARE (phytotoxicity rating) ([8]; 250 g ai/ha, rating scale 0-100) | Post-emerge Herbicidal Activity ABUTH (phytotoxicity rating) ([10]; 63 g ai/ha) | Post-emerge Herbicidal Activity ABUTH (phytotoxicity rating) ([10]; 250 g ai/ha) | Post-emerge Herbicidal Activity CASOB (phytotoxicity rating) ([11]; 63 g ai/ha) | Post-emerge Herbicidal Activity CASOB (phytotoxicity rating) ([11]; 250 g ai/ha) | Post-emerge Herbicidal Activity CHEAL (phytotoxicity rating) ([12]; 63 g ai/ha) | Post-emerge Herbicidal Activity CHEAL (phytotoxicity rating) ([12]; 250 g ai/ha) | phytotoxicity rating DIGSA ([14]; 63 g ai/ha) | phytotoxicity rating DIGSA ([14]; 250 g ai/ha) | phytotoxicity rating IPOHE ([15]; 63 g ai/ha) | phytotoxicity rating IPOHE ([15]; 250 g ai/ha) | phytotoxicity rating ECHCG ([16]; 250 g ai/ha) | phytotoxicity rating AMBEL ([17]; 63 g ai/ha) | phytotoxicity rating AMBEL ([17]; 250 g ai/ha) | phytotoxicity rating SORHA ([18]; 63 g ai/ha) | phytotoxicity rating SORHA ([18]; 250 g ai/ha) | phytotoxicity rating ABUTH ([19]; 63 g ai/ha) | phytotoxicity rating ABUTH ([19]; 250 g ai/ha) | phytotoxicity rating CASOB ([20]; 250 g ai/ha) | phytotoxicity rating CHEAL ([21]; 63 g ai/ha) | phytotoxicity rating CHEAL ([21]; 250 g ai/ha) | phytotoxicity rating SETVI ([22]; 63 g ai/ha) | phytotoxicity rating SETVI ([22]; 250 g ai/ha) | phytotoxicity rating AMARE ([23]; 63 g ai/ha) | phytotoxicity rating AMARE ([23]; 250 g ai/ha)
70: Post-emerge Herbicidal Activity SORHA (phytotoxicity rating) ([9]; 250 g ai/ha)
50: Post-emerge Herbicidal Activity RICE (crop damage rating) ([1]; 63 g ai/ha)
10: Post-emerge Herbicidal Activity ECHCG (phytotoxicity rating) ([7]; 63 g ai/ha)
80: Post-emerge Herbicidal Activity RICE (crop damage rating) ([1]; 250 g ai/ha) | phytotoxicity rating RICE ([3]; 63 g ai/ha) | Post-emerge Herbicidal Activity ECHCG (phytotoxicity rating) ([7]; 250 g ai/ha) | phytotoxicity rating CASOB ([20]; 63 g ai/ha)
99: phytotoxicity rating ECHCG ([16]; 63 g ai/ha)
90: Post-emerge Herbicidal Activity DIGSA (phytotoxicity rating) ([5]; 250 g ai/ha)
65: Post-emerge Herbicidal Activity CORN (crop damage rating) ([2]; 250 g ai/ha)
30: Post-emerge Herbicidal Activity SORHA (phytotoxicity rating) ([9]; 63 g ai/ha) | Post-emerge Herbicidal Activity SETVI (phytotoxicity rating) ([13]; 63 g ai/ha)
60: Post-emerge Herbicidal Activity DIGSA (phytotoxicity rating) ([5]; 63 g ai/ha)
45: Post-emerge Herbicidal Activity CORN (crop damage rating) ([2]; 63 g ai/ha)
75: phytotoxicity rating CORN ([4]; 63 g ai/ha) | Post-emerge Herbicidal Activity SETVI (phytotoxicity rating) ([13]; 250 g ai/ha)

From US6355799B1, “Substituted benzene compounds, process for their preparation, and herbicidal and defoliant compositions containing them” (ISK Americas Incorporated, priority 1997, dated 2002)
